Source: patent US12703712B2, “Indenonaphthopyrans having trialkylsilyl and ethylenically unsaturated groups” (Transitions Optical, Ltd., priority 2021, dated 2026)

Assay: Solubility evaluation in polymerizable polysiloxane-containing formulation
Assay type: physicochemical
Settings: 0.06 g photochromic compound in 1.50 g polymerizable polysiloxane-containing formulation of Table 1; stirred 24 hours at room temperature; visual observation
Protocol: A polymerizable polysiloxane-containing formulation was prepared by mixing together the ingredients and in the amounts as tabulated in the following Table 1.
The photochromic compounds of Comparative Examples CE-1 and CE-2, and Examples 4 and 5, prepared as described in Part-1, were each added to a polymerizable polysiloxane-containing formulation according to Table 1, to form Polymerizable Photochromic Compositions A, B, C, and D, as summarized in the following Table 2. The Polymerizable Photochromic Compositions were each stirred for 24 hours at room temperature after which the solubility of the photochromic compounds was determined by visual observation.

SMILES | Observed Solubility
C=C(C)C(=O)OCCOCCOCCOc1ccc(C2(c3ccccc3)C=Cc3c4c(c5cc(N6CCCCC6)c(OC)cc5c3O2)-c2ccc(-c3ccccc3)cc2C4(CCC)CCC)cc1 (stereo not shown) [CE-1] | poor
C=C(C)C(=O)OCCOC(=O)CCC(=O)N1CCN(c2ccc(C3(c4ccccc4)C=Cc4c5c(c6cc(N7CCCCC7)c(OC)cc6c4O3)-c3ccccc3C5(C)C)cc2)CC1 (stereo not shown) [CE-2] | poor
C=C(C)C(=O)OCCOCCOCCOc1ccc(C2(c3ccccc3)C=Cc3c4c(c5cc(N6CCCCC6)c(OC)cc5c3O2)-c2ccc(-c3ccc([Si](C)(C)C)cc3)cc2C4(CCC)CCC)cc1 (stereo not shown) [Example 4, 6-methoxy-7-(piperidin-1-yl)-11-(4-trimethylsilylphenyl)-13,13-dipropyl-3-phenyl-3-(2-(2-(1-methacroylethoxy)ethoxy)ethoxy)phenyl-3H,13H-indeno[2′,3′: 3,4]naphtho[1,2-b]pyran] | excellent
C=C(C)C(=O)OCCOC(=O)CCC(=O)N1CCN(c2ccc(C3(c4ccccc4)C=Cc4c5c(c6cc(N7CCCCC7)c(OC)cc6c4O3)-c3ccc([Si](C)(C)C)cc3C5(C)C)cc2)CC1 (stereo not shown) [Example 5] | excellent
